Literature values as cited in patent US20230117236A1 (priority 2021, published 2023).

System: SARS-CoV-2
Conditions: treatment with 24 ppm of chlorine dioxide; within 10 seconds

Q: Which SARS-CoV-2 inactivated does the source give for `[O][Cl+][O-]` [chlorine dioxide] here?
A: more than 99.99%
